Patent US11466034B2, “Compound functioning as bromodomain protein inhibitor, and composition” (Betta Pharmaceuticals Co., Ltd., priority 2017, dated 2022)

What was measured:
[1] = Pharmacokinetic assay in male SD rats, single gavage; type: in vivo; details: Sprague-Dawley (SD), rat, plasma
Procedure: Male SD rats were offered by Beijing Vital River Laboratory Animal Technology Co., Ltd., the rats were divided into groups of 3, and the suspension of the test sample (5 mg/kg-20 mg/kg) was given by single gavage. The animals were fasted overnight before the experiment, the fasting time was from 10 hours before the administration to 4 hours after the administration. Blood was collected at 0.25, 0.5, 1, 2, 4, 7, and 24 hours after administration. Blood was collected from fundus venous plexus, and placed in EDTA-K2 anticoagulation tube. The sample was centrifuged at 4° C. and 4000 rpm for 10 min, the plasma was transferred into centrifuge tubes and the compound to be test was extracted by protein precipitation, the extract was analyzed by LC-MS/MS.

BRD4(D1) = BRD4(D1) (Homo sapiens (Human), UniProt O60885); experiment: Inhibitory activity against BRD4(D1), HTRF assay; type: binding
Procedure: (§1) (+)-JQ1 was used as comparison compound, to evaluated the inhibitory activity of compounds of the invention against BRD4(D1) and BRD4(D2) in vitro.
(§2) The assays of BRD4 (D1) and BRD4 (D2) were conducted in a 384-well polystyrene plate. The test compounds were first serially diluted in DMSO and the test compound/DMSO were transferred to 384-well plates. The final concentration of DMSO in the assay was 0.1%. 2 volumes of protein/peptide mixture were added into 384-well plates, then 2 volumes of assay mixture were added, and shake for 30 s. The plate was incubated at room temperature for 2 h. Then the HTRF signal on EnVision was readed.
(§3) Use equation (1) to fit the date in Excel to obtain the value of the inhibition rate. Inhibition rate (%)=(maximum value−signal value)/(maximum value−minimum value)*100 Equation(1):
(§4) IC50 determination was performed by fitting the data using GraphPad Prism 5.0 software and equation (2). Y=bottom+(Top−bottom)/(1+10^((Log IC50−X)*HillSlope)); Equation(2): wherein, Y represents the percentage of inhibition (%); X represents the concentration of test compounds.
(§5) The IC50 data of the examples were provided in the following table, wherein, A stands for IC50<100 nM; B stands for IC50 is 100-300 nM; C stands for IC50>300 nM.

BRD4(D2) = BRD4(D2) (Homo sapiens (Human), UniProt O60885); experiment: Inhibitory activity against BRD4(D2), HTRF assay; type: binding
Procedure: as §1, §2, §3, §4, §5

[2] = Stability test of Compound 19 crystalline form I (XRD); type: physicochemical

AUC(0-t) ([1]; oral dose 10 mg/kg) | Cmax ([1]; oral dose 10 mg/kg) | half-life ([1]; oral dose 10 mg/kg) | IC50 (BRD4(D1); numeric values) | IC50 (BRD4(D2); numeric values) | IC50 (BRD4(D1); class symbols) | IC50 (BRD4(D2); class symbols) | SMILES | further results
5100 ng·h/mL | 1960 ng/mL | 2.3 h | 1.6 nM | 0.5 nM | – | – | CCS(=O)(=O)Nc1cc(-c2cn(C)c(=O)c3[nH]ccc23)nc2c1ncn2Cc1ccc(C(F)(F)F)cc1 [Example 58, N-(5-(6-methyl-7-oxo-6,7-dihydro-1H-pyrrolo[2,3-c]pyridin-4-yl)-3-(4-(trifluoromethyl)benzyl)-3H-imidazo[4,5-b]pyridin-7-yl)ethanesulfonamide] | –
9430 ng·h/mL | 730 ng/mL | 4.5 h | 9.1 nM | 1.6 nM | – | – | Cc1nc2ncc(-c3cn(C)c(=O)c4[nH]ccc34)nc2n1Cc1ccc(C(F)(F)F)cc1 [Example 19, 6-methyl-4-(2-methyl-1-(4-(trifluoromethyl)benzyl)-1H-imidazo[4,5-b]pyrazin-6-yl)-1H-pyrrolo[2,3-c]pyridin-7(6H)-one] | –
– | – | – | 1.2 nM | 0.5 nM | – | – | CCS(=O)(=O)Nc1cc(-c2cn(C)c(=O)c3[nH]ccc23)nc2c1ncn2Cc1ccc(F)cc1F [Example 59, N-(3-(2,4-difluorobenzyl)-5-(6-methyl-7-oxo-6,7-dihydro-1H-pyrrolo[2,3-c]pyridin-4-yl)-3H-imidazo[4,5-b]pyridin-7-yl)ethanesulfonamide] | AUC(0-t) ([1]; oral dose 5 mg/kg): 10200 ng·h/mL; Cmax ([1]; oral dose 5 mg/kg): 3290 ng/mL; half-life ([1]; oral dose 5 mg/kg): 2.3 h
24000 ng·h/mL | 1700 ng/mL | 4.1 h | 21.2 nM | 7.9 nM | – | – | Cn1cc(-c2cnc3cnn(Cc4ccc(Cl)cc4)c3c2)c2cc[nH]c2c1=O [Example 39, 4-(1-(4-chlorobenzyl)-1H-pyrazolo[4,3-b]pyridin-6-yl)-6-methyl-1,6-dihydro-7H-pyrrolo[2,3-c]pyridin-7-one] | –
– | – | – | – | – | – | – | Cc1nc2ncc(-c3cn(C)c(=O)c4[nH]ccc34)nc2n1Cc1ccc(C(F)(F)F)cc1 [Crystalline Form I of compound 19, 6-methyl-4-(2-methyl-1-(4-(trifluoromethyl)benzyl)-1H-imidazo[4,5-b]pyrazin-6-yl)-1H-pyrrolo[2,3-c]pyridin-7(6H)-one] | solid form stability (XRD) ([2]; 25° C.-60% RH for 10 days): no solid form change; solid form stability (XRD) ([2]; 40° C.-75% RH for 14 days): no solid form change; solid form stability (XRD) ([2]; dried at 80° C. for 24 hours): no solid form change
– | – | – | – | – | < 100 nM | < 100 nM | Cc1nc2ncc(-c3cn(C)c(=O)c4[nH]ccc34)nc2n1Cc1cc(F)cc(C(F)(F)F)c1 [Example 25, 4-(1-(3-fluoro-5-trifluoromethylbenzyl)-2-methyl-1H-imidazo[4,5-b]pyrazin-6-yl)-6-methyl-1H-pyrrolo[2,3-c]pyridin-7(6H)-one] | AUC(0-t) ([1]; oral dose 20 mg/kg): 13500 ng·h/mL; Cmax ([1]; oral dose 20 mg/kg): 1230 ng/mL; half-life ([1]; oral dose 20 mg/kg): 12.1 h
2290 ng·h/mL | 224 ng/mL | 3.4 h | – | – | – | – | Cc1nc2ncc(-c3cn(C)c(=O)c4[nH]ccc34)nc2n1Cc1ccc(Cl)cc1 [Example 18, 4-(1-(4-chlorobenzyl)-2-methyl-1H-imidazo[4,5-b]pyrazin-6-yl)-6-methyl-1H-pyrrolo[2,3-c]pyridin-7(6H)-one] | –
8500 ng·h/mL | 1000 ng/mL | 3.8 h | – | – | < 100 nM | < 100 nM | Cc1nc2ncc(-c3cn(C)c(=O)c4[nH]ccc34)nc2n1Cc1ccc(Cl)c(C(F)(F)F)c1 [Example 27, 4-(1-(3-trifluoromethyl-4-chlorobenzyl)-2-methyl-1H-imidazo[4,5-b]pyrazin-6-yl)-6-methyl-1H-pyrrolo[2,3-c]pyridin-7(6H)-one] | –
2830 ng·h/mL | 407 ng/mL | 3.3 h | – | – | < 100 nM | < 100 nM | Cc1nc2ncc(-c3cn(C)c(=O)c4[nH]ccc34)nc2n1Cc1cccc(C(F)(F)F)c1 [Example 23, 4-(1-(3-trifluoromethylbenzyl)-2-methyl-1H-imidazo[4,5-b]pyrazin-6-yl)-6-methyl-1H-pyrrolo[2,3-c]pyridin-7(6H)-one] | –
– | – | – | – | – | < 100 nM | < 100 nM | CCS(=O)(=O)Nc1cc(-c2cn(C)c(=O)c3[nH]ccc23)cc2c1nc(C)n2Cc1ccccc1 [Example 45, N-(1-benzyl-2-methyl-6-(6-methyl-7-oxo-6,7-dihydro-1H-pyrrolo[2,3-c]pyridin-4-yl)-1H-benzo[d]imidazol-4-yl)ethanesulfonamide] | –
– | – | – | – | – | < 100 nM | < 100 nM | CCS(=O)(=O)Nc1cc(-c2cn(C)c(=O)c3[nH]ccc23)cc2c1nc(C)n2C(C)c1ccc(Cl)cc1 (stereo not drawn) [Example 44, N-(1-(1-(4-chlorophenyl)ethyl)-2-methyl-6-(6-methyl-7-oxo-6,7-dihydro-H-pyrrolo[2,3-c]pyridin-4-yl)-1H-benzo[d]imidazol-4-yl)ethanesulfonamide] | –
– | – | – | – | – | < 100 nM | < 100 nM | CCS(=O)(=O)Nc1cc(-c2cn(C)c(=O)c3[nH]ccc23)nc2c1nc(C)n2Cc1cc(F)cc(F)c1 [Example 67, N-(3-(3,5-difluorobenzyl)-2-methyl-5-(6-methyl-7-oxo-6,7-dihydro-H-pyrrolo[2,3-c]pyridin-4-yl)-3H-imidazo[4,5-b]pyridin-7-yl)ethanesulfonamide] | –
– | – | – | 1.1 nM | 0.5 nM | – | – | CCS(=O)(=O)Nc1cc(-c2cn(C)c(=O)c3[nH]ccc23)nc2c1nc(C)n2Cc1ccc(F)cc1F [Example 64, N-(3-(2,4-difluorobenzyl)-2-methyl-5-(6-methyl-7-oxo-6,7-dihydro-1H-pyrrolo[2,3-c]pyridin-4-yl)-3H-imidazo[4,5-b]pyridin-7-yl)ethanesulfonamide] | AUC(0-t) ([1]; oral dose 6.7 mg/kg): 5590 ng·h/mL; Cmax ([1]; oral dose 6.7 mg/kg): 1480 ng/mL; half-life ([1]; oral dose 6.7 mg/kg): 3.5 h
– | – | – | 12.8 nM | 2.5 nM | – | – | COc1ccc(Cn2c(C)nc3ncc(-c4cn(C)c(=O)c5[nH]ccc45)nc32)cc1 [Example 20, 4-(1-(4-methoxybenzyl)-2-methyl-H-imidazo[4,5-b]pyrazin-6-yl)-6-methyl-1H-pyrrol o[2,3-c]pyridin-7(6H)-one] | –
